Assay results from patent publication EP3851097A1, “CONTROLLED RELEASE FORMULATIONS” (Universidad De Zaragoza, priority 2020, dated 2021).

Assay: Ocular tissue pharmacokinetics of dexamethasone after intravitreal injection (HPLC)
Conditions: vitreous humor
Method: Previously, a paracentesis in the anterior chamber was performed using a 30-gauge hypodermic needle with removal of aqueous humor, to avoid an intraocular pressure elevation.
Thirty female NZ albino rabbits were used for this study: fifteen for SCS group (50 µL-DEX/LAP suspension) and other fifteen for IVT group (100 µL).
After administration of DEX/LAP suspension (10 mg/mL, 1:10 w/w), the rabbits were sacrificed for sampling eye tissues and subsequent ocular PK studies. Three animals were used for each sampling time point at 1, 7, 28, 84 and 168 days. A rapid intravenous injection of sodium pentobarbital (30 mg/kg) through the ear vein was performed and immediately after euthanasia, ocular tissues were collected. Following eye enucleation, the globes were snap-frozen (-40°C) and specimens were obtained by eye dissection (vitreous, lens, sclera and chorio-retina compound). DEX concentrations in ocular tissues were determined using a simple and easily accessible method by HPLC-Mss, according to the methodology described by our group in a previous study.
The determination of DEX was carried out by HPLC-Mss method in a Waters 2695 system equipped with a Phenomenex Kinetex C18 column (75 mm × 4.6 mm × 2.6 µm) coupled to a Waters 2995 PDA detector. The mobile phase was acetonitrile/water (35:65 v/v) pumped at a flow rate of 0.2 mL/min at 35°C. Detection at 250 nm was used. The amount of DEX was calculated by a seven point calibration curve against 6-α-methylprednisolone as internal standard. Aliquots of the extraction medium (200 µL) were mixed with acetonitrile (2 mL) and 100 µL of a standard solution (20 ppm in acetonitrile). The solution was then vortexed for 1 min and sonicated for 5 min to ensure the complete mixing, and finally centrifuged at 3000 rpm for 5 min. The supernatant was collected and evaporated under vacuum, and then dissolved in 200 µL of acetonitrile, filtered through a 0.22 µm PTFE syringe filter and analyzed.
PK data were analyzed for the best fit and were consequently modelled according to compartmental models using Microsoft Excel's "PKSolver Add-in" (Albuquerque, NM, USA), in which equations describing concentration as a function of time are used. The following PK parameters were obtained: peak concentration (Cmax), time to peak concentration (Tmax), elimination half-life (T½).
To describe the time course-concentration after administration the following equation was used: Ctissue = C0 ∗e^(−Ke t) [formula] where C is the tissue concentration, C0 is the concentration at time to, Ke is the elimination rate constant which is derived from the elimination half-life of the drug (Ke= 0.693/T1/2).

[1] = 100 µL intravitreal administration

For `C[C@@H]1C[C@H]2[C@@H]3CCC4=CC(=O)C=C[C@]4(C)[C@@]3(F)[C@@H](O)C[C@]2(C)[C@@]1(O)C(=O)CO` [DEX solution, Dexamethasone], the “AUC0-∞” value [1] was 317.17 ng·days/g, the C0 [1] was 1737.71 ng/g and the Cl [1] was 315.29 g/day. For the same compound, the Ke [1] was 5.48 day⁻¹ and the “clearance (CL)” value (intravitreal injection) was 315.29 g/day.
